Test results from patent publication US6060462A, “Electrophilic peptide analogs as inhibitors of trypsin-like enzymes” (DuPont Pharmaceuticals Company, priority 1997, dated 2000).
Counter-ions that a name gives are not always drawn.

What was measured:
Format in all cases: biochemical
[1] = target: T1, human factor Xa (Homo sapiens, UniProt P00742); assay: Inhibition of Factor Xa hydrolysis of chromogenic substrate S2222 (Ki); conditions: purified human factor Xa, 0.10 M sodium phosphate buffer; for Ki: pH 7.5, read-out: Ki values for inhibition of Serine Proteases: Factor Xa; for Ki values for inhibition of Serine Proteases: Factor Xa: pH 7.5
T1 construct: 0.2-0.5 nM human thrombin or human factor Xa; purchased Enzyme Research Laboratories, South Bend, Ind
Procedure: (§1) The effectiveness of compounds of the present invention as inhibitors of blood coagulation proteases was determined using purified human proteases and synthetic substrates following procedures similar to those described in Kettner et al. (1990).
(§2) For these assays, the rate of enzymatic (thrombin, Factor Xa, and Factor VIIa) hydrolysis of chromogenic substrates (S2238 (H-D-Phe-Pip-Arg-pNA), S2222, and S2288, respectively; Kabi Pharmacia, Franklin, Ohio) was measured both in the absence and presence of compounds of the present invention. […] A decrease in the rate of absorbance change at 405 nm in the presence of inhibitor is indicative of enzyme inhibition. The results of this assay are expressed as inhibitory constant, Ki.
(§3) Thrombin and Xa determinations were made in 0.10 M sodium phosphate buffer, pH 7.5, containing 0.20 M NaCl, and 0.5% PEG 8000. VIIa determinations were made in 0.05 M tris buffer, pH 7.6, containing 0.10 M NaCl, 4 mM CaCl2, and 0.1% bovine serum albumin.
(§4) Reactions were allowed to go for 30 minutes and the velocities (rate of absorbance change vs time) were measured in the time frame of 25-30 minutes. The following relationship was used to calculate Ki values. [formula] where: vo is the velocity of the control in the absence of inhibitor;
(§5) vs is the velocity in the presence of inhibitor;
(§6) I is the concentration of inhibitor;
(§7) Ki is the dissociation constant of the enzyme: inhibitor complex;
(§8) S is the concentration of substrate;
(§9) Km is the Michaelis constant.

[2] = target: human thrombin (Homo sapiens, UniProt P00734); assay: Inhibition of thrombin hydrolysis of chromogenic substrate S2238 (Ki); design: 0.2-0.5 nM human thrombin or human factor Xa; purchased Enzyme Research Laboratories, South Bend, Ind; conditions: purified human thrombin, 0.10 M sodium phosphate buffer, pH 7.5, read-out: Ki values for inhibition of Serine Proteases: Trombin
Procedure: as §1, §2, §3, §4, §5, §6, §7, §8, §9

[3] = target: T2, human factor VIIa (Homo sapiens, UniProt P08709); assay: Inhibition of Factor VIIa hydrolysis of chromogenic substrate S2288 (Ki); conditions: purified human factor VIIa, 0.05 M tris buffer; for Ki: pH 7.6, read-out: Ki values for inhibition of Serine Proteases: Factor VIIa; for Ki values for inhibition of Serine Proteases: Factor VIIa: pH 7.6
T2 construct: 50 nM human factor VIIa (BiosPacific, Emeryville, Calif.); purchased BiosPacific, Emeryville, Calif
T2 sequence (P08709 213-466 limits assumed): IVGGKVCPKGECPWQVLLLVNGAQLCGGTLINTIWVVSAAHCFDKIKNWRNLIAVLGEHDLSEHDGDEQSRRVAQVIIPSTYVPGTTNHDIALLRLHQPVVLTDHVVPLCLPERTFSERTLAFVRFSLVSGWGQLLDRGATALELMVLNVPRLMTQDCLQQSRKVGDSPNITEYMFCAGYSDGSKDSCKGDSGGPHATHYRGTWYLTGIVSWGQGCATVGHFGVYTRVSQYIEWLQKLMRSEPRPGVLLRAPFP
T2 sequence (P08709 61-212 partner limits assumed): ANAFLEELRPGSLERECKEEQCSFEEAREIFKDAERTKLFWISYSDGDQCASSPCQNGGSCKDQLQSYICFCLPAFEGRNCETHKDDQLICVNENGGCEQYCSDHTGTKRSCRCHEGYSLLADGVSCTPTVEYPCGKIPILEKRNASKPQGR
Procedure: as §1, §2, §3, §4, §5, §6, §7, §8, §9

T1 sequence (P00742 235-488 limits assumed): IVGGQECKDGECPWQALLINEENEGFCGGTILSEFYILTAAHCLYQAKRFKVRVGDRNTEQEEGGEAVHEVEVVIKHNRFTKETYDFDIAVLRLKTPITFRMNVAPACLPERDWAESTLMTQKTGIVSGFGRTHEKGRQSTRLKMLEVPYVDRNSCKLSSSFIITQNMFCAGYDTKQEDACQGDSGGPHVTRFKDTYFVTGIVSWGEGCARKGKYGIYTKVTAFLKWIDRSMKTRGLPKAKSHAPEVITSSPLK
T1 sequence (P00742 41-179 partner limits assumed): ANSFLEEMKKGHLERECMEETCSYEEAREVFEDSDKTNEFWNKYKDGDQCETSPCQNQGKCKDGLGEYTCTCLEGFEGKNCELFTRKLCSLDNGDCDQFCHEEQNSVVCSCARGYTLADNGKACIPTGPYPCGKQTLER

| Ki [1] | Ki [2] | Ki [3] | Ki values for inhibition of Serine Proteases: Factor Xa [1] | Ki values for inhibition of Serine Proteases: Factor VIIa [3] | Molecule |
| --- | --- | --- | --- | --- | --- |
| < 50000 nM | < 500 nM | < 50000 nM |  |  | COC(=O)CCC(=O)N(CC(=O)NC(CCCCN)B1OC2CC3CC(C3(C)C)C2(C)O1)C(=O)CCc1ccccc1 (stereo not drawn) [Example 54.3.1, Hydrocinnamoyl-[N-(Methyl Succinyl)-Gly]-boroLys-C10H16 HCl] |
| < 500 nM | < 500 nM | < 50000 nM |  |  | COC(=O)CC(C)(C)CC(=O)N(CCc1ccccc1)CC(=O)NC(CCCCN)B1OC2CC3CC(C3(C)C)C2(C)O1 (stereo not drawn) [Example 67.1.3, Methyl Glutaryl(3,3-Dimethyl)-[N-(Phenethyl)-Gly]-boroLys-C10H16 HCl] |
|  | < 50000 nM |  | Inactive | Inactive | CN(CC(=O)NC(CO)CCCCNC(=O)OCc1ccccc1)C(=O)CCc1ccccc1 (stereo not drawn) [Example 61.3.2, Hydrocinnamoyl-Sar-NHCH(CH20H)(CH2)4--NH(Z)] |
| < 50000 nM | < 50000 nM | < 50000 nM |  |  | CN(CC(=O)NC(CCCBr)B1OC2CC3CC(C3(C)C)C2(C)O1)C(=O)c1ccccc1Sc1ccccc1C#N (stereo not drawn) [Example 62.1.1] |
| < 50000 nM | < 500 nM | < 50000 nM |  |  | Cc1cc(C)cc(CCN(CC(=O)NC(CCCN)B2OC3CC4CC(C4(C)C)C3(C)O2)C(=O)CCc2ccccc2)c1 (stereo not drawn) [Example 60.4.1, Hydrocinnamoyl-{N-[2-(3,5-dimethylphenyl)-ethyl]-Gly}-boroOrn-C10H16 HCl] |
| < 50000 nM | < 50000 nM |  |  | inactive | 2-(Benzyl)-Benzoyl-Sar-Lys--C(=O)--NHNH2 2 HCl [Example 70.4.2] |
|  | < 500 nM | < 500 nM |  |  | CC(C)(C)OC(=O)NC(CC(=O)O)C(=O)N(CCc1ccccc1)CC(=O)NC(CCCCN)B1OC2CC3CC(C3(C)C)C2(C)O1 (stereo not drawn) [Example 69.2.2, Boc-Asp-[N-(Phenethyl)-Gly]-boroLys-C10H16] |
| < 500 nM | < 500 nM | < 500 nM |  |  | CN(CC(=O)NC(CCCSC(=N)N)B1OC2CC3CC(C3(C)C)C2(C)O1)C(=O)c1ccccc1Sc1ccccc1C#N (stereo not drawn) [Example 62.1.3, (2-(2-Cyano)-Thiophenyl)-Benzoyl-Sar-boroIrg-C10H16 HBr] |
| < 500 nM | < 500 nM | < 500 nM |  |  | Cc1cc(C)cc(C(C)(C)CN(CC(=O)NC(CCCN=C(N)N)B2OC3CC4CC(C4(C)C)C3(C)O2)C(=O)CCc2ccccc2)c1 (stereo not drawn) [Example 56.3.3, Hydrocinnamoyl-{N-[2,2-(Dimethyl)-2-(3,5-dimethylphenyl)-ethyl]-Gly}-boroArg-C10H16 HCl] |
|  | < 500 nM | < 50000 nM |  |  | COC(=O)CC(C)(C)CC(=O)N(CCc1ccccc1)CC(=O)NC(CCCCN)B(O)O (stereo not drawn) [Example 66.1.3, Methyl Glutaryl(3,3-Dimethyl)-[N-(Phenethyl)-Gly]-boroLys--OH HCl] |
|  | < 500 nM | < 50000 nM |  |  | CC(C)(CC(=O)O)CC(=O)N(CCc1ccccc1)CC(=O)NC(CCCCN)B(O)O (stereo not drawn) [Example 66.1.2, Glutaryl(3,3-Dimethyl)-[N-(Phenethyl)-Gly]-boroLys--OH] |
| < 50000 nM |  | < 500 nM |  |  | CC(C)(CN(CC(=O)NC(CCCCN)B1OC2CC3CC(C3(C)C)C2(C)O1)C(=O)CCc1ccccc1)c1ccccc1 (stereo not drawn) [Example 54.3.3, Hydrocinnamoyl-[N-(2,2-(Dimethyl)-Phenethyl)-Gly]-boroLys-C10H16 HCl] |
| < 500 nM | < 500 nM | < 50000 nM |  |  | NCCCCC(NC(=O)CN(CCc1cccc(C(F)(F)F)c1)C(=O)CCc1ccccc1)B(O)O (stereo not drawn) [Example 52.1.1, Hydrocinnamoyl-[N-(3-(Trifluoromethyl)-Phenethyl)-Gly]-boroLys--OH HCl] |
| < 500 nM | < 500 nM | < 50000 nM |  |  | CC1(C)C2CC3OB(C(CCCCN)NC(=O)CN(CCc4cccc(C(F)(F)F)c4)C(=O)CCc4ccccc4)OC3(C)C1C2 (stereo not drawn) [Example 51.1.1, Hydrocinnamoyl-[N-(3-(Trifluoromethyl)-Phenethyl)-Gly]-boroLys--C10H16 HCl] |
| < 500 nM | < 500 nM | < 50000 nM |  |  | CN(CC(=O)NC(CCCSC(=N)N)B1OC2CC3CC(C3(C)C)C2(C)O1)C(=O)c1ccccc1Sc1ccccc1 (stereo not drawn) [Example 63.1.3, 2-(Thiophenyl)-Benzoyl-Sar-boroIrg-C10H16 HBr] |
|  | < 500 nM |  |  |  | CC(C)(CN(CC(=O)NC(CCCCN)B1OC2CC3CC(C3(C)C)C2(C)O1)C(=O)CCc1ccccc1)c1ccccc1 (stereo not drawn) [Example 54.1.1, Hydrocinnamoyl-[N-(2,2-(Dimethyl)-Phenethyl)-Gly]-boroLys-C10H16 HCl] |

| Ki [1] | Ki [2] | Ki [3] | Ki values for inhibition of Serine Proteases: Factor Xa [1] | Ki values for inhibition of Serine Proteases: Factor VIIa [3] | Molecule |
| --- | --- | --- | --- | --- | --- |
|  | < 500 nM |  |  |  | Hydrocinnamoyl-[N-(Cyclopropyl)-Gly]-boroLys(CH=NH)--OH HCl [Example 76.1.1] |
|  | < 500 nM |  |  |  | CC(c1ccccc1)N(CC(=O)NC(CCCCN)B1OC2CC3CC(C3(C)C)C2(C)O1)C(=O)CNS(C)(=O)=O (stereo not drawn) [Example 67.3.2, Methanesylfonyl-Gly-[N-(N-(Methyl)-Benzyl)-Gly]-boroLys-C10H16 HCl] |
|  |  |  | Inactive | Inactive | Hydrocinnamoyl-Sar-Lys--C(=O)--CH3 HCl [Example 61.2.3] |
|  | < 500 nM |  |  |  | Hydrocinnamoyl-[N-(Cyclopropyl)-Gly]-boroLys(CH=NH)-C10H16 HCl [Example 77.1.1] |
|  | < 50000 nM |  |  |  | Hydrocinnamoyl-[N-(Cyclopropyl)-Gly]-boroOrn(CH=NH)-C10H16 HCl [Example 58.4.2] |
| < 50000 nM |  | < 50000 nM |  |  | Cc1cc(C)cc(CCN(CC(=O)NC(CCCCN)B2OC3CC4CC(C4(C)C)C3(C)O2)C(=O)CCc2ccccc2)c1 (stereo not drawn) [Example 54.4.1, Hydrocinnamoyl-{N-[2-(3,5-dimethylphenyl)-ethyl]-Gly}-boroLys-C10H16 HCl] |
|  | < 500 nM |  |  |  | CC1(C)C2CC3OB(C(CCCN)NC(=O)CN(C(=O)CCc4ccccc4)C4CC4)OC3(C)C1C2 (stereo not drawn) [Example 60.4.2, Hydrocinnamoyl-[N-(Cyclopropyl)-Gly]-boroOrn-C10H16 HCl] |
|  |  | < 500 nM |  |  | CN(CC(=O)NC(CCCNC(=N)N)B(O)O)C(=O)c1ccccc1Sc1ccccc1C#N (stereo not drawn) [Example 75.3.1, (2-(2-Cyano)-Thiophenyl)-Benzoyl-Sar-boroArg--OH HCl] |
| < 50000 nM | < 500 nM |  |  |  | CC(C)(CN(CC(=O)NC(CCCN)B1OC2CC3CC(C3(C)C)C2(C)O1)C(=O)CCc1ccccc1)c1ccccc1 (stereo not drawn) [Example 60.1.1, Hydrocinnamoyl-[N-(2,2-(Dimethyl)-Phenethyl)-Gly]-boroOrn-C10H16 HCl] |
|  | < 500 nM |  |  |  | Hydrocinnamoyl-[N-(N(CH3)2)-Gly]-boroLys--C10H16 HCl [Example 50.1.3] |
|  | < 50000 nM |  |  |  | 2-(2-(Trifluoromethyl)-Benzyl)-Benzoyl-Sar-Lys--C(=O)--NHNH2 2 HCl [Example 71.4.2] |
|  | < 500 nM |  |  |  | CN(CC(=O)N(CCc1ccccc1)CC(=O)NC(CCCCN)B(O)O)S(C)(=O)=O (stereo not drawn) [Example 68.4.2] |
|  | < 500 nM | < 500 nM |  |  | CC(C)(C)OC(=O)NC(CCC(=O)O)C(=O)N(CCc1ccccc1)CC(=O)NC(CCCCN)B1OC2CC3CC(C3(C)C)C2(C)O1 (stereo not drawn) [Example 69.2.1, Boc-Glu-[N-(Phenethyl)-Gly]-boroLys-C10H16] |
|  | < 500 nM |  |  |  | CN(CC(=O)N(CCc1ccccc1)CC(=O)NC(CCCCN)B1OC2CC3CC(C3(C)C)C2(C)O1)S(C)(=O)=O (stereo not drawn) [Example 69.4.2, Methanesulfonyl-Sar-[N-(Phenethyl)-Gly]-boroLys-C10H16 HCl] |
|  | < 500 nM | < 50000 nM |  |  | COC(=O)CCC(NC(=O)OC(C)(C)C)C(=O)N(CCc1ccccc1)CC(=O)NC(CCCCN)B1OC2CC3CC(C3(C)C)C2(C)O1 (stereo not drawn) [Example 69.2.3, Boc-Glu(OCH3)-[N-(Phenethyl)-Gly]-boroLys--C10H16 HCl] |
|  | < 500 nM |  |  |  | Cc1cccc(CCN(CC(=O)NC(CCCCN)B2OC3CC4CC(C4(C)C)C3(C)O2)C(=O)CCc2ccccc2)c1 (stereo not drawn) [Example 51.1.2, Hydrocinnamoyl-[N-(3-(Methyl)-Phenethyl)-Gly]-boroLys-C10H16 HCl] |
